PMC4427169, “Identification and structure solution of fragment hits against kinetoplastid N-myristoyltransferase” (Acta Crystallographica. Section F, Structural Biology …, 2015)
pKd: −log10 of the molar value. Several values for one entry are separate records, joined by “and”; a condition that tells them apart may be missing. Equal entries are not always repeated. Where two headings read alike, the source gives them in different places.

Legend:
[1] = design: method as in Frearson et al., 2010; details: ref Frearson et al., 2010; cited from earlier work
TbNMT [2] = molecular target: T1, TbNMT (Trypanosoma brucei brucei, UniProt Q388H8); experiment: Fragment screen by ligand-observed NMR spectroscopy (STD, water-LOGSY, CPMG) with DDD85646 competition; details: fragments at 500 µM, binding and competition with 50 µM DDD85646 in STD
T1 sequence (Q388H8 1-446): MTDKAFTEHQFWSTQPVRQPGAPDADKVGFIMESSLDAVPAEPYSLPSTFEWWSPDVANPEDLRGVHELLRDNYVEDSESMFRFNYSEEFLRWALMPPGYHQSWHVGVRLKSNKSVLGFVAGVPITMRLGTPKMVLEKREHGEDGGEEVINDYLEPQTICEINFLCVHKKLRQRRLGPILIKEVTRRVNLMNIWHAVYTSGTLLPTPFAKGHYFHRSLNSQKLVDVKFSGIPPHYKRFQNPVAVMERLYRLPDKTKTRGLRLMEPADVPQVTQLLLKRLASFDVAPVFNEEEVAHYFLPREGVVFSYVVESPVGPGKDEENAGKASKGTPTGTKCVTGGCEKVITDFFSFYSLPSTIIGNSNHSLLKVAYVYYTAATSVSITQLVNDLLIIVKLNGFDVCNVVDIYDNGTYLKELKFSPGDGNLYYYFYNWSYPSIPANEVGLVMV
Experimental: TbNMT was prepared at 10 µM in 25 mM sodium phosphate pH 7.4 and 10% deuterated water and the cofactor myristoyl-CoA was added to a final concentration of 50 µM.

TbNMT [3] = molecular target: T1, TbNMT; experiment: Radiometric SPA-based enzyme-inhibition assay, TbNMT; format: biochemical; design: The gene encoding TbNMT was cloned into a pET-15-derived expression vector; 6xHis followed by TEV cleavage site (N); made in house; host or cells: Escherichia coli Rosetta (DE3); details: single fragment concentration of 0.5 mM
Experimental: (§1) Activity assays for TbNMT and LmNMT were carried out using a radiometric SPA-based assay as described previously (Frearson et al., 2010[▶]; Brand et al., 2014[▶]). Percentage inhibition (PI) was determined using a fragment concentration of 0.5 mM in the assay.

LmNMT [4] = molecular target: T2, LmNMT (Leishmania major, UniProt Q4Q5S8); experiment: Biolayer interferometry binding, LmNMT; details: for increase of affinity in the presence of myristoyl-CoA, LmNMT: with vs without myristoyl-CoA; for LE LmNMT, MYA (absence of cofactor) / LE LmNMT, +MYA: ligand efficiency calculated from K d; for LE LmNMT, MYA (absence of cofactor): absence of myristoyl-CoA; for LE LmNMT, +MYA: presence of myristoyl-CoA
T2 construct: LmNMT (5–421) was cloned into a pET-15b-derived vector; 6xHis followed by TEV cleavage site (N); made in house; host or cells: E. coli Rosetta (DE3)
T2 sequence (Q4Q5S8 entry or part of it): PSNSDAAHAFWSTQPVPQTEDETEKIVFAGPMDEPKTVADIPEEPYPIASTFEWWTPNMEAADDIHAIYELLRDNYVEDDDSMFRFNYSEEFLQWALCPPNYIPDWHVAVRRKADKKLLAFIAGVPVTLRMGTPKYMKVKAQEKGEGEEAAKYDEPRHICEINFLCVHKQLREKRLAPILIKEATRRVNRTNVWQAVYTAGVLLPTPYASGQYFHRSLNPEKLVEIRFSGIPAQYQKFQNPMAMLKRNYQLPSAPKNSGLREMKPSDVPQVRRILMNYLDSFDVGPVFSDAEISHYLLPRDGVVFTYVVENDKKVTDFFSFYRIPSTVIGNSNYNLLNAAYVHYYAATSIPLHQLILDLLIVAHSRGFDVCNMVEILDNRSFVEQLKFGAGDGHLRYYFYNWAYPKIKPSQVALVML
Experimental: (§2) TbNMT and LmNMT were biotinylated by incubation with NHS-PEG4-biotin (Thermo) in a 1:1 molar ratio for 30 min at room temperature before free biotinylation reagent was removed by passage through a 2 ml Zeba desalt spin column (Thermo). Biolayer interferometry (BLI) measurements were carried out using an Octet RED 384 instrument (ForteBio). TbNMT and LmNMT were immobilized upon superstreptavidin (SSA) biosensors by incubation for 900 s at 25 and 50 µg ml^−1, respectively, before free streptavidin sites were blocked by a 60 s dip into 10 µg ml^−1 biocytin (Tocris). A control set of SSA biosensors were prepared in parallel by blocking the surface with biocytin. A seven-point concentration series was prepared for each fragment molecule in threefold dilution steps from a top concentration of 1 mM. For each set of biosensors, a 60 s baseline in buffer alone was acquired followed by a 60 s association step and a 180 s dissociation step. […] Data were processed and analysed and K d values were determined using the global fitting procedures as implemented in ForteBio Data Analysis Software v.7.0.1.5. The ligand efficiency metric was calculated using LE = −RTlnK d/heavy-atom count (Hopkins et al., 2004[▶]).

TbNMT [5] = molecular target: T1, TbNMT; experiment: Biolayer interferometry binding, TbNMT; design: The gene encoding TbNMT was cloned into a pET-15-derived expression vector; 6xHis followed by TEV cleavage site (N); made in house; host or cells: Escherichia coli Rosetta (DE3); details: for increase of affinity in the presence of myristoyl-CoA, TbNMT: with vs without myristoyl-CoA; for LE TbNMT, MYA (absence of cofactor) / LE TbNMT, +MYA: ligand efficiency calculated from K d; for LE TbNMT, MYA (absence of cofactor): absence of myristoyl-CoA; for LE TbNMT, +MYA: presence of myristoyl-CoA
Experimental: as §2

LmNMT [6] = molecular target: T2, LmNMT; experiment: Radiometric SPA-based enzyme-inhibition assay, LmNMT; format: biochemical; details: single fragment concentration of 0.5 mM
Experimental: as §1

[7] = BLI, absence of the cofactor myristoyl-CoA (MYA), read-out: K d LmNMT, MYA (absence of cofactor)
[8] = BLI, presence of 1 µM myristoyl-CoA (MYA), read-out: K d LmNMT, +MYA
[9] = BLI, absence of the cofactor myristoyl-CoA (MYA), read-out: K d TbNMT, MYA (absence of cofactor)
[10] = BLI, presence of 1 µM myristoyl-CoA (MYA), read-out: K d TbNMT, +MYA

Question: For Cc1nn(C)c(C)c1NS(=O)(=O)c1c(Cl)cc(-c2ccnc(N3CCNCC3)c2)cc1Cl [DDD85646], which CNS exposure [1] is on record?
Answer: lack of CNS exposure

Question: Which NMR hit class (TbNMT [2]) does the source give for CNCc1cccc(CN2CCOCC2)c1 [Fragment 2] here?
Answer: class I

Question: What about the “PI (%) TbNMT” value (TbNMT [3]) of the same molecule?
Answer: 36%

Question: And the pKd (LmNMT [4]; [7])?
Answer: 3.01

Question: What about the pKd (LmNMT [4]; [8]) of the same molecule?
Answer: 3.70

Question: What about the “increase of affinity in the presence of myristoyl-CoA, LmNMT” value (LmNMT [4]; BLI) of the same molecule?
Answer: around fivefold

Question: What about the “LE LmNMT, MYA (absence of cofactor)” value (LmNMT [4]) of the same molecule?
Answer: 0.25

Question: What about the “LE LmNMT, +MYA” value (LmNMT [4]) of the same molecule?
Answer: 0.31

Question: And the pKd (TbNMT [5]; [9])?
Answer: 3.12

Question: And the pKd (TbNMT [5]; [10])?
Answer: 4.05

Question: And the “increase of affinity in the presence of myristoyl-CoA, TbNMT” value (TbNMT [5]; BLI)?
Answer: around fivefold

Question: And the “LE TbNMT, MYA (absence of cofactor)” value (TbNMT [5])?
Answer: < 0.3 and 0.26

Question: And the “LE TbNMT, +MYA” value (TbNMT [5])?
Answer: > 0.3 and 0.34

Question: And the “PI (%) LmNMT” value (LmNMT [6])?
Answer: 55%

Question: Which NMR hit class (TbNMT [2]) does the source give for CNCc1cc(-c2ccccc2)nn1C [Fragment 3] here?
Answer: class II

Question: What about the “PI (%) TbNMT” value (TbNMT [3]) of the same molecule?
Answer: 70%

Question: What about the pKd (LmNMT [4]; [7]) of the same molecule?
Answer: 3.15

Question: What about the pKd (LmNMT [4]; [8]) of the same molecule?
Answer: 3.74

Question: What about the “increase of affinity in the presence of myristoyl-CoA, LmNMT” value (LmNMT [4]; BLI) of the same molecule?
Answer: around fivefold

Question: And the “LE LmNMT, MYA (absence of cofactor)” value (LmNMT [4])?
Answer: 0.28

Question: And the “LE LmNMT, +MYA” value (LmNMT [4])?
Answer: 0.34

Question: What about the pKd (TbNMT [5]; [9]) of the same molecule?
Answer: 3.28

Question: And the pKd (TbNMT [5]; [10])?
Answer: 3.70

Question: What about the “increase of affinity in the presence of myristoyl-CoA, TbNMT” value (TbNMT [5]; BLI) of the same molecule?
Answer: around fivefold

Question: What about the “LE TbNMT, MYA (absence of cofactor)” value (TbNMT [5]) of the same molecule?
Answer: < 0.3 and 0.30

Question: And the “LE TbNMT, +MYA” value (TbNMT [5])?
Answer: > 0.3 and 0.33

Question: And the “PI (%) LmNMT” value (LmNMT [6])?
Answer: 52%

Question: Which NMR hit class (TbNMT [2]) does the source give for Nc1ccccc1N1CCNCC1 [Fragment 4] here?
Answer: class II

Question: And the pKd (LmNMT [4])?
Answer: 4.01

Question: And the “LE LmNMT, MYA (absence of cofactor)” value (LmNMT [4])?
Answer: 0.42

Question: And the pKd (TbNMT [5])?
Answer: 4.32

Question: And the “LE TbNMT, MYA (absence of cofactor)” value (TbNMT [5])?
Answer: 0.45

Question: And the “PI (%) LmNMT” value (LmNMT [6])?
Answer: 53%
